Data on one compound can be found in ChEMBL document CHEMBL4190378, “Synthesis and evaluation of new 2-chloro-4-aminopyrimidine and 2,6-dimethyl-4-aminopyrimidine derivatives as tubulin polymerization inhibitors” (Bioorg Med Chem Lett, 2018).

Active and inactive are the calls of the source. No cut-off for these calls is given here.

For assay [1], the system named is HeLa. The assay is described as follows: Induction of apoptosis in human HeLa cells assessed as viable cells level at 100 nM incubated for 72 hrs by Annexin-V/FITC and propidium iodide staining based flow cytometry (reference value: 99.72%). Type of assay: functional.
Assay [2] relates to HeLa. The assay is described as follows: Induction of mitochondrial transmembrane potential loss in human HeLa cells at 500 nM incubated for 24 hrs by JC1 staining based fluorescence microscopy. In kind it is functional, cell-based.
In assay [3] the test system is HeLa. Kind of assay: Induction of apoptosis in human HeLa cells assessed as late apoptotic cells level at 100 nM incubated for 48 hrs by Annexin-V/FITC and propidium iodide staining based flow cytometry (reference value: 0.02%). In kind it is functional. On the technique in general: In flow cytometry, cells or beads pass a laser one at a time.
In assay [4] the test system is HeLa. Kind of assay: Induction of apoptosis in human HeLa cells assessed as late apoptotic cells level at 50 nM incubated for 72 hrs by Annexin-V/FITC and propidium iodide staining based flow cytometry (reference value: 0.02%). In kind it is functional.
For assay [5], the system named is HeLa. Kind of assay: Induction of apoptosis in human HeLa cells assessed as early apoptotic cells level at 500 nM incubated for 48 hrs by Annexin-V/FITC and propidium iodide staining based flow cytometry (reference value: 0.16%). Type of assay: functional.
Assay [6] has as its system HeLa. Kind of assay: Induction of apoptosis in human HeLa cells assessed as viable cells level at 50 nM incubated for 48 hrs by Annexin-V/FITC and propidium iodide staining based flow cytometry (reference value: 99.72%). Type of assay: functional.
Assay [7] concerns HeLa. The assay is described as follows: Induction of apoptosis in human HeLa cells assessed as viable cells level at 500 nM incubated for 72 hrs by Annexin-V/FITC and propidium iodide staining based flow cytometry (reference value: 99.72%). In kind it is functional.
Assay [8] concerns HeLa. Kind of assay: Induction of apoptosis in human HeLa cells assessed as viable cells level at 500 nM incubated for 48 hrs by Annexin-V/FITC and propidium iodide staining based flow cytometry (reference value: 99.72%). Type of assay: functional.
The subject of assay [9] is HeLa. Kind of assay: Induction of cell cycle arrest in human HeLa cells assessed as tetraploid peaks level at 50 nM incubated for 24 hrs by propidium iodide staining based flow cytometry. Type of assay: functional.
For another assay, the system named is HepG2. The assay is described as follows: Antiproliferative activity against human HepG2 cells incubated for 48 hrs by MTT assay. Type of assay: functional, cell-based. As to conditions: HepG2, 48 h. For orientation: Tetrazolium assays rely on reduction of a dye to a coloured formazan, in cell work by metabolically active cells.
Another assay relates to A549. The assay is described as follows: Antiproliferative activity against human A549 cells incubated for 48 hrs by MTT assay. In kind it is functional, cell-based. The note with it: A549, 48 h.
Assay [10] deals with HeLa. Kind of assay: Induction of mitochondrial transmembrane potential loss in human HeLa cells assessed as JC1 dye monomers level at 50 nM incubated for 24 hrs by JC1 staining based flow cytometry (reference value: 4.12%). In kind it is functional.
In assay [11] the test system is HeLa. Kind of assay: Induction of mitochondrial transmembrane potential loss in human HeLa cells assessed as JC1 dye monomers level at 100 nM incubated for 24 hrs by JC1 staining based flow cytometry (reference value: 4.12%). Type of assay: functional.
Assay [12] concerns HeLa. Kind of assay: Induction of apoptosis in human HeLa cells assessed as necrotic cells level at 500 nM incubated for 48 hrs by Annexin-V/FITC and propidium iodide staining based flow cytometry (reference value: 0.03%). In kind it is functional.

The IC50 is the concentration needed to halve the response being measured. In the case of `COc1ccc(N(C)c2cc(C)nc(C)n2)cc1O`, the Activity in the assay with HeLa [1] worked out at 65.2%; in the assay with HeLa [3], 0.05%; in the assay on HeLa [4], 7.44%; with HeLa [5], 69.81%; in the assay on HeLa [6] it was 89.56%; in the assay on HeLa [7] it was 11.77%. Further, the Activity with HeLa [8] stood at 29.81%; in the assay with HeLa [9] it was 28.3%; with HeLa [10], 11.47%; with HeLa [11], 28.64%; with HeLa [12] it was 0.29%. The outcome in the assay with HeLa [2] was Active. In addition, the IC50 with HepG2 was 112 nM; in the assay with A549, 113 nM.
